The values that follow come from ChEMBL document CHEMBL3714768 (2012).

Molecules are shown by their SMILES. pIC50: −log10 of the molar value.

Assay [1] is described as follows: Cytotoxicity against human HCT116 cells by fluorescent Calcein-AM assay. It is filed as functional, cell-based. Particulars: hct-116; call rule not given here.
The nature of assay [2]: Selectivity index, ratio of IC50 for purified human red blood cell PP2A (unknown origin) to IC50 for purified rabbit skeletal muscle PP1.
Assay [3] in a line: Cytotoxicity against human DU145 cells by fluorescent Calcein-AM assay. It is filed as functional, cell-based. Particulars: du-145.
In another assay the test system is MCF7. Description: Cytotoxicity against human MCF7 cells by fluorescent Calcein-AM assay. Format: functional, cell-based.
The target in assay [4] is Serine/threonine-protein phosphatase PP1-alpha catalytic subunit (Oryctolagus cuniculus, UniProt P62139). Description: Inhibition of purified rabbit skeletal muscle protein phosphatase 1 using DiFMUP substrate incubated for 30 mins.
Sequence of Serine/threonine-protein phosphatase PP1-alpha catalytic subunit (P62139 whole entry): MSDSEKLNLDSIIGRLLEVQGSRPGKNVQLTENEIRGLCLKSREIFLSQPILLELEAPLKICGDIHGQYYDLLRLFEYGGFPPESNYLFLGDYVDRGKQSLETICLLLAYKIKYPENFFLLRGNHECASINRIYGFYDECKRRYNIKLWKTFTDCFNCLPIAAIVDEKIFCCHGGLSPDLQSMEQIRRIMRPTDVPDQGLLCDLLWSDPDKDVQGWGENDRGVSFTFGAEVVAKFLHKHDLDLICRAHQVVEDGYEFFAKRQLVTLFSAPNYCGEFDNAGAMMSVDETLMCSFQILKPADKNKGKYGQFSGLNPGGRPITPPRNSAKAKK

On to `CCC(/C=C/C(=O)O)=C\CC[C@H](C)C[C@@H](C)CC[C@H](O)[C@H](C)C(=O)C[C@@H](O)[C@H](C)[C@@H](C)OC(=O)C[C@@H](O)C1=C(C)C(=O)OC1=O`, for which the IC50 result (in assay [1]; in assay [3]; in the assay on MCF7) was “Not Active” throughout. Further, the Ratio IC50 in assay [2] is 4.

In general, pIC50 refers to the IC50 on a negative log10 scale, so that one unit is a factor of ten. Higher therefore signals a small IC50. `CCC(/C=C/C(=O)O)=C\C(=O)C[C@H](C)C[C@@H](C)CC[C@H](O)[C@H](C)C(=O)C[C@@H](O)[C@H](C)[C@@H](C)OC(=O)C[C@@H](O)C1=C(C)C(=O)OC1=O` showed a pIC50 in assay [4] of 4.55.

Regarding `CCC(/C=C/C(=O)O)=C\[C@H](O)C[C@H](C)C[C@@H](C)CC[C@H](O)[C@H](C)C(=O)C[C@@H](O)[C@H](C)[C@@H](C)OC(=O)C[C@@H](O)C1=C(C)C(=O)OC1=O`, the Ratio IC50 in assay [2] worked out at 3.8.

With `CC/C(=C\CC[C@H](C)C[C@@H](C)CC[C@H](O)[C@H](C)C(=O)C[C@@H](O)[C@H](C)[C@@H](C)OC(=O)C[C@@H](O)C1=C(C)C(=O)OC1=O)C(O)CC(=O)O` (some centres undefined), the IC50 entry (in assay [1]; in assay [3]; in the assay with MCF7) was “Not Active” each time. In addition, the Ratio IC50 in assay [2] is 3.8.

For the compound `CCC(/C=C/C(=O)O)=C\[C@@H](O)C[C@H](C)C[C@@H](C)CC[C@H](O)[C@H](C)C(=O)C[C@@H](O)[C@H](C)[C@@H](C)OC(=O)C[C@@H](O)C1=C(C)C(=O)OC1=O`, the IC50 entry (in assay [1]; in assay [3]; in the assay with MCF7) was “Not Active” each time. Besides, in assay [2], the Ratio IC50 was 4.5.
